Experimental findings from patent US20210198277A1, “AMINE-SUBSTITUTED ARYL OR HETEROARYL COMPOUNDS” (Epizyme, Inc., priority 2016, published 2021) are described below.

For this test, the target named is T1, EHMT2 (Homo sapiens, UniProt Q96KQ7).
T1 construct: host or cells: MDA-MB-231
T1 sequence (Q96KQ7 1-1210): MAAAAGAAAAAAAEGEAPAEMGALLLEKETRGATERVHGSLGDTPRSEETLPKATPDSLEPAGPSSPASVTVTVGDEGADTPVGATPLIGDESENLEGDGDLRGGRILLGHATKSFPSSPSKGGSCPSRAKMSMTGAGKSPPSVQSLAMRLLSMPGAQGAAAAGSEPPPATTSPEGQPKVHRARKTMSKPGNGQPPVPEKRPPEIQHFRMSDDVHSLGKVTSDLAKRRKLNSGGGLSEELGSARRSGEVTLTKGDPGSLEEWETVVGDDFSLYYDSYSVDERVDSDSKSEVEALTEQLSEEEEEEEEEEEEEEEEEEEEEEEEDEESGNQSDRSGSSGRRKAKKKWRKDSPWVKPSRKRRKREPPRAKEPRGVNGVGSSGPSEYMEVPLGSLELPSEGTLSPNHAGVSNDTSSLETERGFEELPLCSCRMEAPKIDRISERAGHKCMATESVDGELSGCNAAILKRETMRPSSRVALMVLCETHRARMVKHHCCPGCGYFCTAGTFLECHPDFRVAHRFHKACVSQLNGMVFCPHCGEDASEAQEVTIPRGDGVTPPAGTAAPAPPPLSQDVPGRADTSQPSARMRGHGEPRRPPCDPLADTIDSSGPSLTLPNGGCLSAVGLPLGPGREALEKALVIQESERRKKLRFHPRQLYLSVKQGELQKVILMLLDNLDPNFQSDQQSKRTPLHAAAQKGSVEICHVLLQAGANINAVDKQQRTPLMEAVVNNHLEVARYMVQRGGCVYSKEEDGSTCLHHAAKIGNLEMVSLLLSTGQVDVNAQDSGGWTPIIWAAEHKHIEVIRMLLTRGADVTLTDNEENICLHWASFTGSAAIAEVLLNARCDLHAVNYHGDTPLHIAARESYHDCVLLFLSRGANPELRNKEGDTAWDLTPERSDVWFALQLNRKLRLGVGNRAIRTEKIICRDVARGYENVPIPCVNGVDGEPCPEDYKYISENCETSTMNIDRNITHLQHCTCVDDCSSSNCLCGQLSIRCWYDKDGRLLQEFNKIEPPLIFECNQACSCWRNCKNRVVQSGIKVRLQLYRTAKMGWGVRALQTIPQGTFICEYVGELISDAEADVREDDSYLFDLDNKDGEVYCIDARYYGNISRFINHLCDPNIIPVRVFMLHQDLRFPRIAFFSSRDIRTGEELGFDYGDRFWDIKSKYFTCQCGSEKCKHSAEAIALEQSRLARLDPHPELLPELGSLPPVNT
The experiment in a line: MDA-MB-231 H3K9me2 in-cell Western assay (EHMT2 ICW). The following applies: MDA-MB-231 H3K9me2 in-cell Western, read-out: EHMT2 ICW (IC50 μM). The test is classed as cell-based. Summed up: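 Steps: compound added to plate, MDA-MB-231 cells plated in RPMI with 10% FBS, incubation for 48 h at 37 °C, fixation, overnight anti-H3K9me2 staining at 4 °C, and donkey anti-mouse 800CW with DRAQ5 counterstain. IC50 values come from percent inhibition fitted with a four-parameter model.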

The structures appear in SMILES notation. Like-named read-outs stand apart in the source and are kept apart here. Where only a bound is given, the exact number is not on record here.

Regarding `CNc1ccnc(Nc2ccc(OC)c(OC[C@H](O)CN3CCCC3)c2)n1` (single isomer, unassigned) [Compound 376], the IC50 (Table III) fell in the range of 1 to 10 µM.

For the compound `CNc1ccnc(Nc2ccc(OC)c(OC[C@@H](O)CN3CCCC3)c2)n1` (single isomer, unassigned) [Compound 377], the IC50 (Table III) was over 10 µM. Same read-out and setting: next, `CNc1ccnc(Nc2ccc(OC)c(OCC3CCN(C)C3)c2)n1` (single isomer, unassigned) [Compound 415]: 1 to 10 µM.

`CNc1ccnc(Nc2ccc(OC)c(OCC3CCN(C)C3)c2)n1` (single isomer, unassigned) [Compound 416]: the IC50 (Table III) was 0.1 to 1 µM. Still for that read-out and setting: next, `CNc1cc(C)nc(Nc2ccc(OC)c(OCC3CCN(C)C3)c2)n1` (single isomer, unassigned) [Compound 417]: 1 to 10 µM; `CNc1cc(C)nc(Nc2ccc(OC)c(OCC3CCN(C)C3)c2)n1` (single isomer, unassigned) [Compound 418]: under 0.1 µM.

In the case of `CNc1ccnc(Nc2ccc(OC)c(OCCCN3CCCC3)c2)n1` [Compound 1, N^2-(4-methoxy-3-(3-(pyrrolidin-1-yl)propoxy)phenyl)-N^4-methylpyrimidine-2,4-diamine], the IC50 (Table II) was under 0.1 µM. Still for that read-out and setting: next, `COc1ccc(Nc2nccc(NCC3CCN(CC(F)F)CC3)n2)cc1OCCCN1CCCC1` [Compound 2, N^4-((1-(2,2-difluoroethyl)piperidin-4-yl)methyl)-N^2-(4-methoxy-3-(3-(pyrrolidin-1-yl)propoxy)phenyl)pyrimidine-2,4-diamine]: 0.1 to 1 µM; `COc1ccc(Nc2nccc(NCC3CCOCC3)n2)cc1OCCCN1CCCC1` [Compound 3, N^2-(4-methoxy-3-(3-(pyrrolidin-1-yl)propoxy)phenyl)-N^4-((tetrahydro-2H-pyran-4-yl)methyl)pyrimidine-2,4-diamine]: 0.1 to 1 µM; `COc1ccc(Nc2nccc(NCC3CCN(CC(F)(F)F)CC3)n2)cc1OCCCN1CCCC1` [Compound 4, N^2-(4-methoxy-3-(3-(pyrrolidin-1-yl)propoxy)phenyl)-N^4-((1-(2,2,2-trifluoroethyl)piperidin-4-yl)methyl)pyrimidine-2,4-diamine]: 0.1 to 1 µM.

As for `COc1ccc(Nc2nccc(NC3CCOCC3)n2)cc1OCCCN1CCCC1` [Compound 5, N^2-(4-methoxy-3-(3-(pyrrolidin-1-yl)propoxy)phenyl)-N^4-(tetrahydro-2H-pyran-4-yl)pyrimidine-2,4-diamine], the IC50 (Table II) was 0.1 to 1 µM.

On to `COc1ccc(Nc2nccc(NCC(=O)N3CCOCC3)n2)cc1OCCCN1CCCC1` [Compound 51], for which the IC50 (Table II) lay in the range of 1 to 10 µM. With `COc1ccc(Nc2nccc(NCC(=O)N(C)c3ccccc3)n2)cc1OCCCN1CCCC1` [Compound 52], the 50% inhibitory concentration (IC50) (Table II) is 1 to 10 µM. Still for that read-out and setting: with `COc1ccc(Nc2nccc(N3Cc4cn[nH]c4C3)n2)cc1OCCCN1CCCC1` [Compound 53] the figure was 1 to 10 µM; with `COc1ccc(Nc2nccc(NC3CCN(C(C)=O)CC3)n2)cc1OCCCN1CCCC1` [Compound 54], 1 to 10 µM; with `COc1ccc(Nc2ncc(C)c(NCC3CCN(C(C)=O)CC3)n2)cc1OCCCN1CCCC1` [Compound 55], 1 to 10 µM. In the case of `COc1ccc(Nc2nccc(N(C)Cc3ccncc3)n2)cc1OCCCN1CCCC1` [Compound 56], for the setting “Table II”, the IC50 fell in the range of 1 to 10 µM. As to `COc1ccc(Nc2nccc(NCC3CCN(C(C)=O)CC3)n2)cc1COCCN1CC(F)C1` [Compound 57], the IC50 (Table II) lay in the range of 1 to 10 µM. As for `c1cc(Nc2nccc(NCC3CCNCC3)n2)cc(OCCCN2CCCC2)c1` [Compound 88], the IC50 (Table II) lay in the range of 1 to 10 µM. On the same count and under the same terms, with `COc1ccc(Nc2nccc(NCC3CCNCC3)n2)cc1OCCCN1CCCC1` [Compound 90] the figure was over 10 µM. With `CNc1cc(OC)nc(Nc2ccc(OC)c(OCCCN3CCCC3)c2)n1` [Compound 261, 6-methoxy-N^2-(4-methoxy-3-(3-(pyrrolidin-1-yl)propoxy)phenyl)-N^4-methylpyrimidine-2,4-diamine], the IC50 (Table III) is over 10 µM. Consider `CNc1ccnc(Nc2ccc3c(c2)C(=O)N(CCN2CCCC2)CC3)n1` [Compound 264, 7-((4-(methylamino)pyrimidin-2-yl)amino)-2-(2-(pyrrolidin-1-yl)ethyl)-3,4-dihydroisoquinolin-1(2H)-one], for which the IC50 (Table III) is over 10 µM. As for `COc1ccc(Nc2cccc3[nH]ccc23)cc1OCCCN1CCCC1` [Compound 265, N-(4-methoxy-3-(3-(pyrrolidin-1-yl)propoxy)phenyl)-1H-indol-4-amine], the IC50 (Table III) was over 10 µM. Take `COc1ccc(Nc2nccc3[nH]ccc23)cc1OCCCN1CCCC1` [Compound 266, N-(4-methoxy-3-(3-(pyrrolidin-1-yl)propoxy)phenyl)-1H-pyrrolo[3,2-c]pyridin-4-amine]: the IC50 (Table III) fell in the range of 1 to 10 µM. Take `CNc1nccc(Nc2ccc(OC)c(OCCCN3CCCC3)c2)n1` [Compound 355]: the IC50 (Table III) fell in the range of 0.1 to 1 µM. Take `CNc1cc(C)nc(Nc2ccc(F)c(OCCCN3CCCC3)c2)n1` [Compound 356]: the IC50 (Table III) is over 10 µM. Regarding `CNc1nc(Nc2ccc(OC)c(OCCCN3CCCC3)c2)ncc1C#N` [Compound 357], the IC50 (Table III) is over 10 µM.

In the case of `CNc1nc(Nc2ccc(OC)c(OCCCN3CCCC3)c2)ncc1C(F)(F)F` [Compound 358], the IC50 (Table III) is over 10 µM. As for `CNc1ncc(C(F)(F)F)c(Nc2ccc(OC)c(OCCCN3CCCC3)c2)n1` [Compound 359], the IC50 (Table III) is over 10 µM.

In the case of `CNc1nc(Nc2ccc(OC)c(OCCCN3CCCC3)c2)nc(C)c1F` [Compound 360], under “Table III”, the IC50 was 0.1 to 1 µM. Same read-out and setting: next, `CNc1ccnc(Nc2ccc(OC)c(OCCN3CCOCC3)c2)n1` [Compound 361]: over 10 µM. Still for that read-out and setting: next, `CNc1cc(C(F)(F)F)nc(Nc2ccc(OC)c(OCCCN3CCCC3)c2)n1` [Compound 362]: over 10 µM.

With `CNc1ccnc(Nc2ccc3c(c2)N(C(=O)CCN(C)C)CC3)n1` [Compound 363], the IC50 (Table III) was over 10 µM.

Consider `CCc1cc(NC)nc(Nc2ccc(OC)c(OCCCN3CCCC3)c2)n1` [Compound 364], for which the IC50 (Table III) was in the range of 0.1 to 1 µM. The same measure, in the same setting: next, `COc1ccc(Nc2nccc(CNC3CCOCC3)n2)cc1OCCCNc1ccccc1` [Compound 365]: over 10 µM; `COc1ccc(Nc2cnnc(NCC3CCN(C(C)=O)CC3)c2)cc1OCCCN1CCCC1` [Compound 366]: over 10 µM; `COc1ccc(Nc2nccc(NCC3CCOCC3)n2)cc1OC1CC2(C1)CN(C)C2` [Compound 367]: over 10 µM. For the compound `CNc1ccnc(Nc2ccc(F)c(OCCCN3CCCC3)c2)n1` [Compound 368], for the setting “Table III”, the IC50 is over 10 µM.

On to `COc1ccc(Nc2nccc(N)n2)cc1OCCCN1CCCC1` [Compound 369], for which, under “Table III”, the IC50 lay within 1 to 10 µM. `CNc1cnnc(Nc2ccc(OC)c(OCCCN3CCCC3)c2)c1` [Compound 370]: the IC50 (Table III) was over 10 µM. Turning to `CNc1cncc(Nc2ccc(OC)c(OCCCN3CCCC3)c2)n1` [Compound 371], the IC50 (Table III) was over 10 µM.

Turning to `CNc1cc(Nc2cc(OCCCN3CCCC3)c(OC)cn2)ccn1` [Compound 372], where the note is “Table III”, the IC50 lay in the range of 0.1 to 1 µM.

Take `COc1ccc(Nc2nccc3[nH]ncc23)cc1OCCCN1CCCC1` [Compound 373]: the IC50 (Table III) was over 10 µM. Consider `COc1ccc(Nc2ccnc3[nH]ccc23)cc1OCCCN1CCCC1` [Compound 374], for which the IC50 (Table III) was over 10 µM. Regarding `CC(C)Nc1ccnc(Nc2cccc(OCCCN3CC[C@@H](F)C3)c2)n1` [Compound 375], the IC50 (Table III) is over 10 µM.

`COc1ccc(Nc2nccc(NC(C)C3CCOCC3)n2)cc1OCCCN1CCCC1` (stereo not shown) [Compound 378]: the IC50 (Table III) lay in the range of 0.1 to 1 µM. On to `CNc1ccnc(Nc2ccc(OC)c(OCCCN3CCCC3)c2)c1` [Compound 379], for which the IC50 (Table III) lay within 1 to 10 µM. Regarding `CNc1ccnc(Nc2ccc3ccn(CCN4CCCC4)c(=O)c3c2)n1` [Compound 381], the IC50 (Table III) is over 10 µM. In the case of `CNc1ccnc(Nc2ccc(OC)c(COCCN3CCCC3)c2)n1` [Compound 382], under “Table III”, the IC50 was 0.1 to 1 µM. `CNc1ccnc(Nc2cccc(COCCN3CCCC3)c2)n1` [Compound 383]: for the setting “Table III”, the IC50 is over 10 µM. In the case of `CNc1cc(C#N)nc(Nc2ccc(OC)c(OCCCN3CCCC3)c2)n1` [Compound 384], the IC50 (Table III) is over 10 µM. For `CCc1cc(NC)nc(Nc2ccc(OC)c(OCCCN3CC[C@@H](F)C3)c2)n1` [Compound 385], the concentration for half-maximal inhibition (IC50) (Table III) lay in the range of 1 to 10 µM.

Broadly, the IC50 is the concentration at which inhibition is half-maximal.
